Experimental data: US20210179561A1, “ACID ADDITION SALTS OF APOMORPHINE, PHARMACEUTICAL COMPOSITIONS CONTAINING THE SAME, AND METHODS OF USING THE SAME” (Sunovion Pharmaceuticals Inc., priority 2018, published 2021)
Where a name gives a salt, the structure may show the parent alone.

Columns and labels:
[1] = Intrinsic dissolution (Wood's apparatus, HPLC) in pH 4.5 acetate buffer or artificial saliva; settings: for dissolution rates compared with apomorphine glycolate and apomorphine sulfamate: in words
Procedure: Samples were quantitated using HPLC.
Dissolution experiments were performed using a VanKel VK7010 dissolution tester equipped with a VK750D heater/circulator. […] Approximately 150 mg of acid addition salt of apomorphine salt were compressed with an applied load of approximately 1000 pounds for 1 minute in the Wood's apparatus using a hydraulic press. The dissolution medium was either pH 4.5 acetate buffer or artificial saliva. The medium (900 mL) was equilibrated to 37° C.±0.5° C. and degassed by sparging with helium for ca. 2 minutes at the start of each experiment. The disks were rotated at 75 rpm. Sampling of 1 mL aliquots was performed at the given timepoints using a 10 mL syringe equipped with a stainless steel cannula.
The sample aliquots were analyzed by HPLC for acid addition salt of apomorphine content. HPLC analyses were performed using an Agilent 1100 series liquid chromatograph equipped with a diode array or variable wavelength detector, degasser, quaternary pump, and an autosampler. The chromatographic column was a 4.6×50 mm Luna C18(2) column with 5 μm packing (Phenomenex). The column temperature was set to 25.0° C., and the detector wavelength was 274 nm. The autosampler temperature was set to 5.0° C. The injection volume was 25.0 μL. Mobile phase was 80:20 0.2% trifluoroacetic acid:acetonitrile.
Intrinsic dissolution experiments were conducted in duplicate for apomorphine hydrochloride salt in pH 4.5 acetate buffer and artificial saliva. Aliquots (1 mL) were drawn from the dissolution vessel at time intervals indicated in Table 6, transferred to an HPLC vial, and the dissolution values (mass per unit area) of the apomorphine salt was determined for each aliquot (see Table 6). The determined dissolution values were plotted against the time intervals, and the slope of the linear curve was determined. This slope corresponds to the calculated intrinsic dissolution rate (IDR) for the apomorphine salt.

physchem = settings: water
[2] = Dynamic vapor sorption/desorption (DVS); type: physicochemical; settings: for DVS weight change at 5% equilibration: 5% RH equilibration; for DVS weight loss from 95 to 5% RH: desorption 95 to 5% RH; for DVS weight gain from 5 to 95% RH: sorption 5 to 95% RH
Procedure: Dynamic vapor sorption (DVS) data were collected on a VTI SGA-100 Vapor Sorption Analyzer. NaCl and PVP were used as calibration standards. Samples were not dried prior to analysis. Sorption and desorption data were collected over a range from 5% to 95% RH at 10% RH increments under a nitrogen purge. The equilibrium criterion used for analysis was less than 0.0100% weight change in 5 minutes with a maximum equilibration time of 3 hours. Data were not corrected for the initial moisture content of the samples.

[3] = solution from aqueous solubility test
[4] = Approximate aqueous solubility of apomorphine salts; settings: water
[5] = Artificial saliva, 37° C., Table 5 (mean of two tests except glycolate)
[6] = pH 4.5 acetate buffer, 37° C., Table 5 (mean of two tests except glycolate)

| Compound | IDR [1, 5] [mg/cm^2/min] | dissolution rates compared with apomorphine glycolate and apomorphine sulfamate [1] | IDR [1, 6] [mg/cm^2/min] | DVS weight change at 5% equilibration [2] [%] | DVS weight loss from 95 to 5% RH [2] [%] | DVS weight gain from 5 to 95% RH [2] [%] | Approximate Aqueous Solubility [4] [mg/mL] | further results |
| --- | --- | --- | --- | --- | --- | --- | --- | --- |
| CN1CCc2cccc3c2[C@H]1Cc1ccc(O)c(O)c1-3 [Hydrochloride, apomorphine hydrochloride, reference compound] | 0.582 | significantly lower | 2.643 |  |  |  |  | solubility (physchem): ~21 mg/mL |
| CC(C)C(=O)O.CN1CCc2cccc3c2C1Cc1ccc(O)c(O)c1-3 (stereo not shown) [Isobutyrate, apomorphine isobutyrate] | 0.305 | significantly lower | 1.576 | 0.0 | 0.2 | 0.1 |  |  |
| apomorphine glutarate |  |  |  |  |  |  | 3 | Approximate pH of Aqueous Solution [3]: 6 |
| apomorphine glycolate | 10.862 |  | 34.775 | 0.0 | 0.5 | 0.5 |  | Dissolution in pH 4.5 Acetate Buffer ([1]; 1 min, single experiment): 14.548 mg/cm^2; Dissolution in Artificial Saliva ([1]; 3 min, single experiment): 42.192 mg/cm^2; Dissolution in pH 4.5 Acetate Buffer ([1]; 3 min, single experiment): 38.801 mg/cm^2; Dissolution in Artificial Saliva ([1]; 3.5 min, single experiment): 47.686 mg/cm^2; Dissolution in pH 4.5 Acetate Buffer ([1]; 3.5 min, single experiment): 51.432 mg/cm^2; Dissolution in Artificial Saliva ([1]; 4 min, single experiment): 53.878 mg/cm^2; Dissolution in pH 4.5 Acetate Buffer ([1]; 4 min, single experiment): 72.492 mg/cm^2; Dissolution in Artificial Saliva ([1]; 4.5 min, single experiment): 58.232 mg/cm^2; Dissolution in pH 4.5 Acetate Buffer ([1]; 4.5 min, single experiment): 89.739 mg/cm^2; IDR ([1]; artificial saliva, single experiment): 10.862 mg/cm^2/min; IDR ([1]; pH 4.5 acetate buffer, single experiment): 34.775 mg/cm^2/min |
| apomorphine methylbenzoate |  |  |  |  |  |  | <1 |  |
| apomorphine sulfamate | 16.873 |  | 19.598 | 0.0 | 25.4 |  |  | DVS weight gain from 5 to 85% RH ([2]; sorption 5 to 85% RH): 1.0% |
